Measured values from paper PMC3274641 (Bioorganic & medicinal chemistry letters, 2011).
Entries after “also recorded” stand apart in the source; their conditions may differ. Where two headings read alike, the source gives them in different places.

Assays:
Hα4β2 nAChRs [1] = molecular target: T1, Hα4β2 nAChRs (Homo sapiens, UniProt P17787+P43681); conditions: scaffolds; previously reported data; cited from earlier work
Hα3β4 nAChRs [2] = molecular target: T2, Hα3β4 nAChRs (Homo sapiens, UniProt P30926+P32297); conditions: scaffolds; previously reported data; cited from earlier work
Hα3β4 nAChRs [3] = molecular target: T2, Hα3β4 nAChRs; experiment: Inhibition of Hα3β4 nAChRs by NAMs; type: cell-based; conditions: for change in potency on Hα3β4 nAChRs compared to scaffolds (in words): scaffolds KAB-18, KAB-24, COB-4, respectively
Hα4β2 nAChRs [4] = molecular target: T1, Hα4β2 nAChRs; experiment: cell-based; type: cell-based; conditions: for fold more potent than lead molecule KAB-18: Hα4β2 nAChRs
[5] = at the 1 year mark; agonist-antagonist therapy in combination with the nicotine patch; cited from earlier work

T1 sequence (P43681 29-627 limits assumed): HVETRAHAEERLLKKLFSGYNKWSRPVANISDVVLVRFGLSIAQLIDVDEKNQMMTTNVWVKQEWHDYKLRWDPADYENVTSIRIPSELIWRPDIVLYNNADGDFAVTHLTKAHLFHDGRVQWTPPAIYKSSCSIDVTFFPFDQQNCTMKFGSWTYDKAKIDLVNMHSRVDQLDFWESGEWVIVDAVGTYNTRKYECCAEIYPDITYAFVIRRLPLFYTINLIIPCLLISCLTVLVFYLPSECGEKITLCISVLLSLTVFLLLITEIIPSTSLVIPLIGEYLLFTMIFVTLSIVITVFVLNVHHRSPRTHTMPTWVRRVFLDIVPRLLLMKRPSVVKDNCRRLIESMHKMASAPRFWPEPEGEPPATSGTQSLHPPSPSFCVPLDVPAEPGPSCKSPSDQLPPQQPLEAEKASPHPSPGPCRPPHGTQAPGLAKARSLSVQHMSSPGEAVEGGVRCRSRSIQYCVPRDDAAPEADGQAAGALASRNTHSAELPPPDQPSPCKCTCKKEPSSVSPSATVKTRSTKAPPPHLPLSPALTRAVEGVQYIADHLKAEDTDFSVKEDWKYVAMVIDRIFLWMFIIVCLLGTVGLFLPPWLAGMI
T1 sequence (P17787 26-502): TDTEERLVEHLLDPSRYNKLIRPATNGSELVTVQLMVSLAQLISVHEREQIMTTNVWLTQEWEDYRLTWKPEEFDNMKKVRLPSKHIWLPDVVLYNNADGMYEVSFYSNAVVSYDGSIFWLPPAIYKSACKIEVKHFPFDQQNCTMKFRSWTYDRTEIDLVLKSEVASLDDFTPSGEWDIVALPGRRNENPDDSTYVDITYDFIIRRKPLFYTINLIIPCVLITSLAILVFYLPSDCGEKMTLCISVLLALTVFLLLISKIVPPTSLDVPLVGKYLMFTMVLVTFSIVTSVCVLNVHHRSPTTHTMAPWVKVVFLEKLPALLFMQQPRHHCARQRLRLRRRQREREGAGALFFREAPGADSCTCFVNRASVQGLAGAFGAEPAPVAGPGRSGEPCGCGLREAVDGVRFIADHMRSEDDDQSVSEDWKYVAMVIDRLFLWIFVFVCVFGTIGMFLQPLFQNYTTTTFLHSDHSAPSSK
T2 sequence (P32297 32-505): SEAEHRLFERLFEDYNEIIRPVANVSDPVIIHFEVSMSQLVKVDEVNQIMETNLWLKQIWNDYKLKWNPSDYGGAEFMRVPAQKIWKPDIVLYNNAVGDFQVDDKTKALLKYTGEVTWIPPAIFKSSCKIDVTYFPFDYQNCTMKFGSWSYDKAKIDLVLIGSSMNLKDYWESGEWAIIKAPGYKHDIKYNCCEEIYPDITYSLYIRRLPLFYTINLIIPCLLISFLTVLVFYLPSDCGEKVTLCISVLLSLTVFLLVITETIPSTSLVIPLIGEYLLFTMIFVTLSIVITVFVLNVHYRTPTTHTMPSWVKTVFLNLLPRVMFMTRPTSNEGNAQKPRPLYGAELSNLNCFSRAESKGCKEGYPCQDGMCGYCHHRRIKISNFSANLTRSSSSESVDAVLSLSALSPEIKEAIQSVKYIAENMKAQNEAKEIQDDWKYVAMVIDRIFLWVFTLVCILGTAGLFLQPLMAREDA
T2 sequence (P30926 22-498): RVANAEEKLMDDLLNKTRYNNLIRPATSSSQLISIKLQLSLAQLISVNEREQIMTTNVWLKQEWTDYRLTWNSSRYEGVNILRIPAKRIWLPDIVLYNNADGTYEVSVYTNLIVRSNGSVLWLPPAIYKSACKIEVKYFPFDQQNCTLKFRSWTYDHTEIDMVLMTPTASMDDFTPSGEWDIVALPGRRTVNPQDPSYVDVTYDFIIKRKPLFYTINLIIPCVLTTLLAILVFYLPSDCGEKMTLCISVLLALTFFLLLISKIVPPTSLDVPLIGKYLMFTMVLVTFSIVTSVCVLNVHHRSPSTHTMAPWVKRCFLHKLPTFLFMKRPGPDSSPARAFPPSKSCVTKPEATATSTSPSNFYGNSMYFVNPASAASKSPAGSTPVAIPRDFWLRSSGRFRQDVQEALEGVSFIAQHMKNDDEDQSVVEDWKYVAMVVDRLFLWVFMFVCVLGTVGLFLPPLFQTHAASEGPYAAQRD

## O=C(OCC1CCN(CCCc2ccccc2)CC1)c1ccccc1-c1ccccc1 [COB-4]
Hα4β2 nAChRs [1]
  nH, Hill coefficient, Hα4β2 nAChRs: −0.8
Hα3β4 nAChRs [2]
  nH, Hill coefficient, Hα3β4 nAChRs: −1.0

## O=C(NCc1ccccc1)c1ccccc1-c1ccccc1 [COB-170]
Hα3β4 nAChRs [3]
  IC50: 8.5 µM
Hα3β4 nAChRs [3]; COB series
  nH, Hill coefficient, Hα3β4 nAChRs: −1.8
Hα4β2 nAChRs [4]
  selectivity for Hα4β2 nAChRs over Hα3β4 nAChRs (in words): nonselective
  fold more potent than lead molecule KAB-18: 2 fold
Hα4β2 nAChRs [4]; COB series
  nH, Hill coefficient, Hα4β2 nAChRs: −1.1

## O=C(Nc1ccccc1)c1ccccc1-c1ccccc1 [COB-171]
Hα3β4 nAChRs [3]; COB series
  nH, Hill coefficient, Hα3β4 nAChRs: −2.2
Hα4β2 nAChRs [4]
  selectivity for Hα4β2 nAChRs over Hα3β4 nAChRs (in words): nonselective
  fold more potent than lead molecule KAB-18: 2 fold
Hα4β2 nAChRs [4]; COB series
  nH, Hill coefficient, Hα4β2 nAChRs: −1.3

## O=C(NCc1cccc2ccccc12)c1ccccc1-c1ccccc1 [COB-172]
Hα3β4 nAChRs [3]; COB series
  nH, Hill coefficient, Hα3β4 nAChRs: −0.4
Hα4β2 nAChRs [4]
  selectivity for Hα4β2 nAChRs over Hα3β4 nAChRs (in words): maintained selectivity for Hα4β2 nAChRs
Hα4β2 nAChRs [4]; COB series
  nH, Hill coefficient, Hα4β2 nAChRs: −0.7
Hα4β2 nAChRs [4]; compared to lead molecule KAB-18
  change in potency on Hα4β2 nAChRs (in words): no change in potency; also recorded: maintained potency

## O=C(Nc1ccccn1)c1ccccc1-c1ccccc1 [COB-173]
Hα3β4 nAChRs [3]; COB series
  nH, Hill coefficient, Hα3β4 nAChRs: −0.9
Hα4β2 nAChRs [4]
  selectivity for Hα4β2 nAChRs over Hα3β4 nAChRs (in words): nonselective
Hα4β2 nAChRs [4]; COB series
  nH, Hill coefficient, Hα4β2 nAChRs: −1.0

## O=C(Nc1ccncn1)c1ccccc1-c1ccccc1 [COB-174]
Hα3β4 nAChRs [3]; COB series
  nH, Hill coefficient, Hα3β4 nAChRs: −0.9
Hα4β2 nAChRs [4]
  selectivity for Hα4β2 nAChRs over Hα3β4 nAChRs (in words): nonselective
Hα4β2 nAChRs [4]; COB series
  nH, Hill coefficient, Hα4β2 nAChRs: −1.5

## O=C(Nc1cccc2ccccc12)c1ccccc1-c1ccccc1 [COB-175]
Hα3β4 nAChRs [3]; COB series
  nH, Hill coefficient, Hα3β4 nAChRs: −1.2
Hα4β2 nAChRs [4]; COB series
  nH, Hill coefficient, Hα4β2 nAChRs: −0.8
Hα4β2 nAChRs [4]; over Hα3β4 nAChRs
  fold preference for Hα4β2 nAChRs: 2 fold

## O=C(OC1CCCN(CCCc2ccccc2)C1)c1ccccc1-c1ccccc1 (centres unmarked) [DDR-14]
Hα4β2 nAChRs [1]
  nH, Hill coefficient, Hα4β2 nAChRs: −1.6
Hα3β4 nAChRs [2]
  nH, Hill coefficient, Hα3β4 nAChRs: −1.4

## O=C(OCC1CCCN(CCCc2ccccc2)C1)c1ccccc1-c1cccc2ccccc12 (centres unmarked) [FFB-1]
Hα3β4 nAChRs [3]
  IC50: 178 µM
Hα4β2 nAChRs [4]; training set, selectivity Hα4β2 vs Hα3β4
  Obs. [SI] QSSR (Hα4β2/Hα3β4): 1.29

## O=C(OC1CCCN(C(=O)CCc2ccccc2)C1)c1ccccc1-c1ccccc1 (centres unmarked) [IMB-132]
Hα3β4 nAChRs [3]; IMB series
  nH, Hill coefficient, Hα3β4 nAChRs: −1.6
Hα3β4 nAChRs [3]; compared to DDR-14
  fold decrease in potency on Hα3β4 nAChRs compared to scaffold molecule: 2 fold
Hα4β2 nAChRs [4]
  IC50: 2.7 µM
Hα4β2 nAChRs [4]; IMB series
  nH, Hill coefficient, Hα4β2 nAChRs: −1.6

## O=C(OCC1CCCN(C(=O)CCc2ccccc2)C1)c1ccccc1C(F)(F)F (centres unmarked) [IMB-134]
Hα3β4 nAChRs [3]; IMB series
  nH, Hill coefficient, Hα3β4 nAChRs: −2.1
Hα3β4 nAChRs [3]
  change in potency on Hα3β4 nAChRs compared to scaffolds (in words): no change in potency
Hα4β2 nAChRs [4]; IMB series
  nH, Hill coefficient, Hα4β2 nAChRs: −1.5

## O=C(OCC1CCN(C(=O)CCc2ccccc2)CC1)c1ccccc1-c1ccccc1 [IMB-135]
Hα3β4 nAChRs [3]; IMB series
  nH, Hill coefficient, Hα3β4 nAChRs: −1.5
Hα3β4 nAChRs [3]
  change in potency on Hα3β4 nAChRs compared to scaffolds (in words): no change in potency

## O=C(OCC1CCCN(CCCc2ccccc2)C1)c1ccccc1-c1ccccc1 (centres unmarked) [KAB-18]
Hα4β2 nAChRs [1]
  nH, Hill coefficient, Hα4β2 nAChRs: −1.4

## O=C(OCC1CCCN(CCCc2ccccc2)C1)c1ccccc1C(F)(F)F (centres unmarked) [KAB-24]
Hα4β2 nAChRs [1]
  nH, Hill coefficient, Hα4β2 nAChRs: −0.8
Hα3β4 nAChRs [2]
  nH, Hill coefficient, Hα3β4 nAChRs: −0.8

## CNC1(C)C2CCC(C2)C1(C)C (centres unmarked) [Mecamylamine]
[5]
  abstinence: 40%
